In general, CC50 refers to the concentration at which the toxic effect on the cells reaches its halfway point.

SMILES strings stand for the structures.

The nature of series [1]: Total doxorubicin content, recovery and encapsulation efficiency of liposomal suspension (HPLC). It is filed as physicochemical. The conditions noted are these: 50:1 lipid/drug. On the procedure: All HPLC was performed using an Agilent 1260 Infinity system, equipped with a G13110B pump, 01329B autosampler, G1316A column compartment, and a G1315D diode-array detector. OpenLab CDS (EZChrom edition) software controlled all modules and was used for analysis and reporting of chromatography. A Phenomenex Luna C18 column (5μ, 150×4.6 mm; part #00G-4252-E0) was used for all analyses.
Chromatographic analysis of doxorubicin (DOX) was performed on the Agilent 1260 Infinity system using a C18 column (see above) with a column temperature of 40° C. and sample temperature at ambient conditions (˜25° C.). All mobile phase reagents were filtered with a 0.45 μm filter membrane prior to use. HPLC grade acetonitrile was from EMD Millipore. […] Mobile phase flow rate was set to 1.0 mL/min with a run time of 15 minutes. The diode array detector was operated at 487 nm with a bandwidth of 4 nm. Injection volume was set to 10 μL.
Standard stock solution of doxorubicin was prepared in a 0.9% saline, or methanol, or water solution (1 mg/mL). Calibration standards were prepared by diluting the stock solution in anhydrous methanol to bracket the target concentration for analysis. For this study, the doxorubicin solution was diluted with anhydrous methanol or IPA to the final concentration 50 μg/mL, 100 μg/mL and 200 μg/mL; respectively. Samples of liposomal suspension were also diluted with anhydrous methanol or IPA by a factor of 8 or 10 times prior to analysis.
Determination of doxorubicin in liposomal suspension. Followed doxorubicin loading liposomal suspension was subjected to 5× TFF to majorly remove free (not encapsulated) doxorubicin. To determine total doxorubicin concentration at TO (within one week of MFD) TFF washed liposomes were diluted with methanol or IPA and subjected to HPLC analysis. Doxorubicin content, percent of recovery (doxorubicin content in liposomal suspension relative to doxorubicin free base concentration used for remote loading), and encapsulation efficiency (%) are presented in the Table 9. Encapsulation efficiency (%) represents the difference between doxorubicin recovery (%) and free doxorubicin (%).

The conditions of series [2]: counter ion; cited from earlier work.
In the next series the test system is nucleus. The conditions noted are these: within 8 h after administration; cited from earlier work.
Another series has as its system Daudi cells. Kind of series: In vitro cell-based cytotoxicity assay (Alamar Blue), Daudi cells. Particulars: Homo sapiens, 1 hr exposure, 48 hrs culture. As for the experimental part: Daudi cells (ATCC, CCL-213). Cells were plated in 96 well plates at the density 100K cells per well. Doxorubicin hydrochloride, Doxil®, or doxorubicin oxalate liposomes were appropriately diluted in Growth medium (RPMI-1640, 10% FBS) and added to the cells. After 1 hr of incubation at 37° C. plates were centrifuged, supernatant was removed via aspiration, 100 μL of fresh media were added into each well, and cells were cultured for 48 hrs.
(§1) On the day, 3 to assess cell viability, Alamar Blue solution was prepared in Growth medium (RPMI-1640, 10% FBS) at 1:250 dilution and added directly into cell media. After 6 hrs of incubation at 37° C. the resulting fluorescence was read on a plate reader. The fluorescence of cells that have not received any drug treatment was defined as maximum viability. The fluorescence of cell free media was defined as complete cell death. Data analysis was performed by using Prism nonlinear regression software (GraphPad Software) for the curve-fitting and determination of IC50 values.

The subject of series [3] is Human B lymphoma cell line Ramos (RA 1). The series can be described thus: In vivo study: B lymphoma model in SCID Beige mice. The conditions noted are these: 3 mg doxorubicin/kg iv x3.
Experimental: On the same day prior to administration into animals cell were counted, centrifuged at 12000 rpm, washed with sterile PBS, centrifuged again at 1200 rpm, resuspended in sterile PBS to the final cell count 35×10-per mL. Suspension of cells was administered into animals intravenously via single bolus injection to deliver 5×10^6 cells per mouse.
Four weeks old immune deficient SCID Beige, (Line—CB17.Cg-Prkdc^scidLyst^bg-J/Crl) mice were maintained on Chow diet. At the age of 8 weeks mice were subdivided in 3 groups. On the day 1, 5×10^6 B lymphoma cells were intravenously injected into each mouse (FIG. 2). […] On the day 2 and 3 all treatments were repeated (FIG. 2). Animals were monitored daily and weighed twice a week.
Treatment articles were administered intravenously in 120 μL via single bolus injection to deliver 60 μg of doxorubicin per mouse or ˜3 mg/kg dose.
The next series relates to Hela cells. Kind of series: cells. It is filed as cell-based. The conditions noted are these: Homo sapiens, read-out: Hela, CC50, μM. On the procedure: Hela cells (HeLa (ATCC CCL-2). Cells were plated in 96 well plates at the density 25K cells per well. Doxorubicin hydrochloride, Doxil®, or doxorubicin oxalate liposomes were appropriately diluted in Growth medium (DMEM, 5% FBS, 1% antibiotic, 1% HEPES) and added to the cells. After 1 hr of incubation at 37° C. plates were centrifuged, supernatant was removed via aspiration, 100 μL of fresh media were added into each well, and cells were cultured for 48 hrs.
as §1

Consider `CC(=O)O` [Acetate], for which, in series [1] (remote loading at 70° C.), the “doxorubicin loading into liposomes with this counter ion (in words)” value (“doxorubicin loading into liposomes” for short) is on record as “no doxorubicin loading was observed”.

Turning to `O=C1O[C@H]([C@@H](O)CO)C(O)=C1O` [Ascorbate], the “doxorubicin loading into liposomes” value in series [1] (remote loading at 70° C.) is given as “no doxorubicin loading was observed”. Consider `N[C@@H](CS)C(=O)O` [Cysteinate], for which, in series [2], the “pKa 1” value is on record as 1.96 and the “pKa 2” value is on record as 8.18. Moreover, the “doxorubicin loading into liposomes” value in series [1] (remote loading at 70° C.) is reported as “no doxorubicin loading was observed”. For `COc1cccc2c1C(=O)c1c(O)c3c(c(O)c1C2=O)C[C@@](O)(C(=O)CO)C[C@@H]3O[C@H]1C[C@H](N)[C@H](O)[C@H](C)O1.Cl` [Doxorubicin Hydrochloride, Doxorubicin hydrochloride], the “drug translocated to / entered the nucleus” value in the series on nucleus is listed as 26%. In addition, the half-maximal cytotoxic concentration (CC50) with Daudi cells was determined as 0.4 µM; in the series with Hela cells it was 7 µM. In addition, in series [3], the “survival compared to Placebo (in words)” value was “survivors demonstrated longest MST”. This compound came in with a death rate in series [3] (day 13) of 50%.

As for `O=CO` [Formate], in series [1] (remote loading at 70° C.), the “doxorubicin loading into liposomes” value was “no doxorubicin loading was observed”. Consider `O=C(O)/C=C/C(=O)O` [Fumarate], for which, in series [1] (remote loading at 70° C.), the “doxorubicin loading into liposomes” value is on record as “no doxorubicin loading was observed”. Still for that read-out and setting: as for `O=C(O)/C=C\C(=O)O` [Maleate], the entry is “no doxorubicin loading was observed”; as for `O=C(O)CC(=O)O` [Malonate], “no doxorubicin loading was observed”. On to `CC(=O)N[C@@H](CS)C(=O)O` [N-Acetyl- L-cysteine], for which the “pKa 1” value in series [2] is 3.82. For the same compound, the “doxorubicin loading into liposomes” value in series [1] (cold loading at room temperature) and in series [1] (remote loading at 70° C.) was “no doxorubicin loading was observed” throughout.

For `O=C(O)c1ccccn1` [Picolinate], in series [1] (remote loading at 70° C.), the “doxorubicin loading into liposomes” value is “no doxorubicin loading was observed”. Regarding `O=C(O)CCC(=O)O` [Succinate], the “doxorubicin loading into liposomes” value in series [1] (remote loading at 70° C.) is recorded as “no doxorubicin loading was observed”.

The values are drawn from US11033520B2, “Liposomal anticancer compositions” (IriSys, LLC, priority 2016, dated 2021).
